Series [1] can be described thus: Stability of vancomycin in serum under various storage conditions (QC samples, HPLC-Q-trap-MS). The series is classed as in vitro ADME, human. The settings on record: serum at 4 °C and 25 °C for 24 h, after three freezing and thawing cycles and stored at −80 °C for 30 days; three concentrations.
Procedure: The IS working solution was diluted with deionized water to give a final concentration of 100 ng/mL. Quality control (QC) samples were prepared in 100 μL of blank serum by adding 10 μL of serially diluted solutions of the substance to determine the limit of quantification, as well as 2 ng/mL (low), 20 ng/mL (medium), and 400 ng/mL (high) concentrations. The L, M, and H of QCs were analyzed at least in duplicate. All solutions were stored at −20 °C and brought to room temperature before use.
The chromatographic separation was performed on an Agilent ZORBAX SB-C18 (4.6 × 150 mm, 5 μm). The mobile phase consisted of water (containing 0.1% formic acid, v/v) and acetonitrile (containing 0.1% formic acid, v/v) and the flow rate was set at 0.5 mL/min. An isocratic elution was performed with 30% of acetonitrile. The total run time was 8 min. The injection volume was 10 μL. […]
The pretreatment followed for all samples was 10 μL of the IS was added to 20 μL of the standard and unknown serum samples and mixed vigorously for 20 s. […] Two-hundred microliters of mobile phase was added to the resulting residue and vortexed for 1 min; 100 μL was analyzed.
For the bench-top stability during handing, QC samples were prepared and kept room temperature (25 °C) for 6 h. […] Stability of sample in autosampler was determined by analyzing the targets after kept in an autosampler at room temperature for 12 h.
A short description of series [2]: Steady-state trough serum vancomycin concentration in DFI patients and nondiabetic patients with pneumonia. Type of series: in vivo, human. The conditions noted are these: 1g q12h; for Trough Concentration of vancomycin: mean ± SD, SD. On the procedure:
Clinical samples were collected at Air Force General Hospital, PLA. […] Human blank serum was obtained from healthy blood donors not using vancomycin (Air Force General Hospital, PLA.). The study was approved by the hospital ethics committee. Every patient was given a sufficient description of the study and signed an informed consent prior to the study.
The pretreatment followed for all samples was 10 μL of the IS was added to 20 μL of the standard and unknown serum samples and mixed vigorously for 20 s. Five-hundred microliters of acetonitrile was added, vortexed for 1 min, and centrifuged for 6 min at 12,000 rpm. After transferring the supernatant to a fresh centrifuge tube, it was evaporated to dryness under a stream of nitrogen at room temperature. Two-hundred microliters of mobile phase was added to the resulting residue and vortexed for 1 min; 100 μL was analyzed.
Fifty diabetes mellitus type 2 patients with known or suspected Gram-positive DFI (Wagner score grade 3/4, equivalent to Texas classification of at least B3), and 50 nondiabetic patients with pneumonia requiring antibiotic therapy from 2014 to 2016 were included. […] The estimated ClCr was calculated from serum creatinine using the Cockcroft-Gault formula [29]. CrCl = (140-age in years) × body weight in kg/(serum creatinine in […]) × 0.85 for females). Statistical analysis was performed by SPSS 25.0.

Regarding `CN[C@H](CC(C)C)C(=O)N[C@H]1C(=O)N[C@@H](CC(N)=O)C(=O)N[C@H]2C(=O)N[C@H]3C(=O)N[C@H](C(=O)N[C@H](C(=O)O)c4cc(O)cc(O)c4-c4cc3ccc4O)[C@H](O)c3ccc(c(Cl)c3)Oc3cc2cc(c3O[C@@H]2O[C@H](CO)[C@@H](O)[C@H](O)[C@H]2O[C@H]2C[C@](C)(N)[C@H](O)[C@H](C)O2)Oc2ccc(cc2Cl)[C@H]1O` [vancomycin, Vancomycin], in series [1], the “Stability in serum (in words)” value is reported as “stable”. Further, the “Trough Concentration of vancomycin” value in series [2] (DFI group (n = 50), type 2 diabetes patients) is 8.20 ± 2.83 µg/mL; in series [2] (Nondiabetic group (n = 50), pneumonia patients) it was 15.8 ± 5.43 µg/mL. In addition, the “Trough concentration of vancomycin, range” value in series [2] (DFI patients (n = 50)) is 4.80 to 14.2 µg/mL; in series [2] (nondiabetic patients (n = 50)) it was 8.60 to 19.5 µg/mL.

The values are drawn from publication PMC6278353 (Molecules, 2018).
